Literature values, collected in patent US12599131B2, “Disinfectant composition” (KAO CORPORATION, priority 2020, dated 2026).

Details: 0.1 mol/L in water, Handbook of Chemistry or Chemicalize

| SMILES | pKa (25° C.) |
| --- | --- |
| CCCCCCCCC(CCCCCC)C(=O)O (stereo not drawn) [2-hexyldecanoic acid] | 5.12 |
| CCCCCCCCC(CCCCCCCC)C(=O)O [2-octyldecanoic acid] | 4.98 |
| O=C(O)CCCCC(=O)O [adipic acid] | 4.3 |
| CCCCCCCCCC(=O)O [capric acid] | 4.95 |
| CCCCCC(=O)O [caproic acid] | 4.6 |
| O=CO [formic acid] | 3.54 |
